In patent publication US20220096507A1, “Parenteral Pharmaceutical Composition Comprising Azacitidine or Decitabine in DMSO” (Sandoz AG, priority 2020, published 2022):
Where two headings read alike, the source gives them in different places.

Experiments:
[1] = bulk (non-pharmaceutical grade) substance, purity above 95%, Cayman leaflet; cited from earlier work
[2] = 250 mg/mL in DMSO, relative to week 0
Method: A 250 mg/mL solution of azacitidine (TEVA Sicor) in DMSO (Merck; Ph. Eur. grade quality) with a water content of less than 0.1 wt.-% was prepared and filled into (moisture proof) vials, which were subsequently sealed using rubber stoppers. […] The amount of azacitidine was analyzed using high performance liquid chromatography (HPLC) and comparing the integral of the azacitidine peak with the integral of a freshly prepared standard solution containing a predetermined amount of azacitidine.
HPLC measurements were carried out using an Agilent 1200 system (or equivalent). For detection, a UV detector (235 nm) was used. A YMC Hydrosphere C18 (250 mm*4.6 mm*[…]) column and a flow rate of 1.0 mL/min and a gradient of aq. pH 7 buffer solution (containing disodium hydrogen phosphate, orthophosphoric acid and ammonium formate)/acetonitrile from 100:0 to 40:60 were employed.

[3] = at 25° C. in water; cited from earlier work

Compound	solubility in bulk DMSO [1]	% of azacitidine at 25° C. ([2]; water <0.1 wt.-%, day 0) [%]	% of azacitidine at 40° C. ([2]; water <0.1 wt.-%, day 0) [%]	% of azacitidine at 25° C. ([2]; day 7) [%]	% of azacitidine at 40° C. ([2]; day 7) [%]	% of azacitidine at 25° C. ([2]; day 14) [%]	% of azacitidine at 40° C. ([2]; day 14) [%]	% of azacitidine at 25° C. ([2]; day 21) [%]	% of azacitidine at 40° C. ([2]; day 21) [%]	% of azacitidine at 25° C. ([2]; day 28) [%]	% of azacitidine at 40° C. ([2]; day 28) [%]	% of azacitidine at 25° C. ([2]; day 56) [%]	% of azacitidine at 40° C. ([2]; day 56) [%]	% of azacitidine at 25° C. ([2]; day 98) [%]	% of azacitidine at 40° C. ([2]; day 98) [%]	% of azacitidine at 25° C. ([2]; day 182) [%]	% of azacitidine at 40° C. ([2]; day 182) [%]	solubility of azacitidine in water [3] [mg/mL]
Nc1ncn([C@H]2C[C@H](O)[C@@H](CO)O2)c(=O)n1 [decitabine, 5-aza-2′-deoxycytidine]	approximately 30 mg/mL	–	–	–	–	–	–	–	–	–	–	–	–	–	–	–	–	–
Nc1ncn([C@@H]2O[C@H](CO)[C@@H](O)[C@H]2O)c(=O)n1 [azacitidine, 5-azacytidine]	approximately 30 mg/mL	100	100	100	100	100	100	100	100	100	100	100	99	100	96	100	94	13.4
